How the values were obtained:
[1] = molecular target: T1, Sodium/glucose cotransporter 1 (Homo sapiens) (UniProt P13866); conditions: COS-7, 10 uM
T1 sequence (whole entry): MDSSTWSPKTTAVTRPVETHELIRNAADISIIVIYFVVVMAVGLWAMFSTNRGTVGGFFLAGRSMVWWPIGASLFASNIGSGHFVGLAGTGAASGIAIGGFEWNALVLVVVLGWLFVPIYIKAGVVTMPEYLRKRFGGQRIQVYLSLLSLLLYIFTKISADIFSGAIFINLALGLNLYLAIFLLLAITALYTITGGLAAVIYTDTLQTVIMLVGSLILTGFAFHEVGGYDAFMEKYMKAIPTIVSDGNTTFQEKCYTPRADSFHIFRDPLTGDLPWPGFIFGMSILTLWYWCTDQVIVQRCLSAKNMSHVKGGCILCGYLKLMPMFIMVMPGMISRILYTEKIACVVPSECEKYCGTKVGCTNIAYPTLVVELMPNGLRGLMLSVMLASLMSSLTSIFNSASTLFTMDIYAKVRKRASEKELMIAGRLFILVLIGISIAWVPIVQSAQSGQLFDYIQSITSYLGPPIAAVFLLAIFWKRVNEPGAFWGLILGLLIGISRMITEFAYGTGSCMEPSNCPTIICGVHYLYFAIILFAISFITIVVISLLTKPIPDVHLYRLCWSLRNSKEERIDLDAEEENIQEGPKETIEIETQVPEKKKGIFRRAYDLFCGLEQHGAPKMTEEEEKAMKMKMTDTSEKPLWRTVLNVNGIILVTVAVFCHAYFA
Description: Inhibition of human SGLT1 expressed in african green monkey COS7 cells assessed as methyl-alpha-D-[U-14C]glucopyranoside uptake at 10 uM by scintillation counting

[2] = molecular target: T2, Sodium/glucose cotransporter 2 (Homo sapiens) (UniProt P31639); conditions: 10 nM
T2 sequence (whole entry): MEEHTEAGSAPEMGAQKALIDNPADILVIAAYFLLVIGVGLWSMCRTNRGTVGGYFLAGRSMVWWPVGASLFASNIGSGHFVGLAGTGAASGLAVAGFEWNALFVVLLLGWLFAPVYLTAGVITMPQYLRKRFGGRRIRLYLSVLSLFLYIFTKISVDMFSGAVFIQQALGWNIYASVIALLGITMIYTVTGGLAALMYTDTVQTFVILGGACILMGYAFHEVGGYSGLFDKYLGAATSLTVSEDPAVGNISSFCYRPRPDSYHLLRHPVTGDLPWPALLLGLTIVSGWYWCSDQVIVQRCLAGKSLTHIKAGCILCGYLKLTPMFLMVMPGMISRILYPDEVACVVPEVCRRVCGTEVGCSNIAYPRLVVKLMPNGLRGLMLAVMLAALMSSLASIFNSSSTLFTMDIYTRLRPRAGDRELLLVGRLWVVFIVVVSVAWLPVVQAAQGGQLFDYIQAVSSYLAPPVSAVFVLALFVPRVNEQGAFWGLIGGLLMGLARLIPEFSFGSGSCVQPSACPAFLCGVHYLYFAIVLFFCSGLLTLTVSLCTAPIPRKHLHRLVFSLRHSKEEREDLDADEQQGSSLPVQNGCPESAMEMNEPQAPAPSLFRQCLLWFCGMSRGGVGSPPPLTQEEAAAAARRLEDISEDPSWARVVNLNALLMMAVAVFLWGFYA
Description: Inhibition of human SGLT2 expressed in HEK293.ETN cells assessed as methyl-alpha-D-[U-14C]glucopyranoside uptake at 10 nM by scintillation counting

inhibition [1]: 72.7%
inhibition [2]: 69.7%
Compound: CCOc1ccc(Cc2cc([C@@H]3O[C@H](CO)[C@@H](O)[C@H](O)[C@H]3O)ccc2Cl)cc1

— ChEMBL document CHEMBL1155186, “O-Spiro C-aryl glucosides as novel sodium-dependent glucose co-transporter 2 (SGLT2) inhibitors” (Bioorg Med Chem Lett, 2009)
